According to patent US20240109868A1, “EP300/CBP MODULATOR, PREPARATION METHOD THEREFOR AND USE THEREOF” (Miracure Biotechnology Limited, priority 2022, published 2024):

Columns and labels:
22Rv1 Cell = experiment: 22RV1 cell growth inhibition, CellTiter-Glo, 72 h; type: cell-based; details: 22RV1 cells, 72 h culture
How it was run: (§1)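 Cells seeded at 5×10^3/well overnight in RPMI-1640/10% FBS, then exposed to compound (0.5% DMSO final) for 72 h at 37 °C.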

vCap Cell = experiment: vCap cell growth inhibition, CellTiter-Glo, 72 h; type: cell-based; details: vCap cells, 72 h culture
How it was run: as §1

SMILES | IC50 (22Rv1 Cell; Homo sapiens, 22Rv1, 72 h) [µM] | IC50 (vCap Cell; Homo sapiens, VCaP, 72 h) [µM] | IC50 (22Rv1 Cell) [µM] | IC50 (vCap Cell) [µM]
CCN1CCC(c2cc3c(c(N4CCCc5cc(-c6cnn(C)c6)c(C(F)F)cc54)c2)CN(C(=O)OC)CCC3)CC1=O (stereo not shown) [Compound M001260, methyl 9-(7-(difluoromethyl)-6-(1-methyl-1H-pyrazol-4-yl)-3,4-dihydroquinolin-1(2H)-yl)-7-(1-ethyl-2-oxopiperidin-4-yl)-1,3,4,5-tetrahydro-2H-benzo[c]azepine-2-carboxylate] | > 1 | > 1 |  | 
CC(=O)N1CCc2cc([C@H]3CC[C@H](O)CC3)cc(N3CCCc4cc(-c5cnn(C)c5)c(C(F)F)cc43)c2C1 [Compound M001179] | > 1 | > 1 |  | 
CCN1CCC(c2cc3c(c(N4CCCc5cc(-c6cnn(C)c6)c(C(F)F)cc54)c2)CN(C(=O)NC)CCC3)CC1=O (stereo not shown) [Compound M001263] | > 1 | > 1 |  | 
CNC(=O)N1CCc2cc(C3CCNC(=O)C3)cc(N3CCCc4cc(-c5cnn(C)c5)c(C(F)F)cc43)c2C1 (stereo not shown) [Compound M001123] | > 1 | < 1 |  | 
CNC(=O)N1CCc2cc(C3CCN(C(=O)C4CCN(C)C4)CC3)cc(N3CCCc4cc(-c5cnn(C)c5)c(C(F)F)cc43)c2C1 (stereo not shown) [Compound M001085] | > 1 | > 1 |  | 
Cn1cc(-c2cc3c(cc2C(F)F)N(c2cccc4c2CN(C(=O)C2CC2)CCC4)CCC3)cn1 [Compound M001214] | > 1 | > 1 |  | 
CNC(=O)N1Cc2cc([C@H]3CC[C@H](O)CC3)cc(N3CCCc4cc(-c5cnn(C)c5)c(C(F)F)cc43)c2C1 [Compound M001193] | > 1 | > 1 |  | 
CC(=O)N1Cc2cc(C3CCN(CC(F)F)CC3)cc(N3CCCc4cc(-c5cnn(C)c5)c(C(F)F)cc43)c2C1 [Compound M001058] | > 1 | > 1 |  | 
CC(=O)N1Cc2cc([C@H]3CC[C@@H](O)CC3)cc(N3CCCc4cc(-c5cnn(C)c5)c(C(F)F)cc43)c2C1 [Compound M001195] | > 1 | < 1 |  | 
CON1CCC(c2cc3c(c(N4CCCc5cc(-c6cnn(C)c6)c(C(F)F)cc54)c2)CN(C(C)=O)C3)CC1 [Compound M001269] | > 1 | > 1 |  | 
CNC(=O)N1CCc2cc(CN3CCCC(C(=O)O)C3)cc(N3CCCc4cc(-c5cnn(C)c5)c(C(F)F)cc43)c2C1 (stereo not shown) [Compound M001015] | > 1 | > 1 |  | 
COC(=O)N1Cc2cc(C3CCC(OC)CC3)cc(N3CCCc4cc(-c5cnn(C)c5)c(C(F)F)cc43)c2C1 (stereo not shown) [Compound M001203] | > 1 | > 1 |  | 
CC(=O)N1Cc2cc(N3CCNCC3)cc(N3CCCc4cc(-c5cnn(C)c5)c(C(F)F)cc43)c2C1 [Compound M001002] | > 1 | > 1 |  | 
CN1CCC(c2cc3c(c(N4CCCc5cc(-c6cnn(C)c6)c(C(F)F)cc54)c2)CN(C)C(=O)C3)CC1 [Compound M001028, 8-[7-(difluoromethyl)-6-(1-methylpyrazol-4-yl)-3,4-dihydro-2H-quinolin-1-yl]-2-methyl-6-(1-methyl-4-piperidyl)-1,4-dihydroisoquinolin-3-one] | > 1 | > 1 |  | 
CC(=O)N1Cc2cc(C3CC4CCC(C3)N4)cc(N3CCCc4cc(-c5cnn(C)c5)c(C(F)F)cc43)c2C1 (stereo not shown) [Compound M001052] | > 1 | > 1 |  | 
CN1Cc2c(cc(C3CCNCC3)cc2N2CCCc3cc(-c4cnn(C)c4)c(C(F)F)cc32)CC1=O [Compound M001027] | > 1 | > 1 |  | 
CNC(=O)N1Cc2cc(C3CCNCC3)cc(N3CCCc4cc(-c5cnn(C)c5)c(C(F)F)cc43)c2C1 [Compound M001042] | > 1 | > 1 |  | 
COC1CCC(c2cc3c(c(N4CCCc5cc(-c6cnn(C)c6)c(C(F)F)cc54)c2)CN(C(C)=O)CC3)CC1 (stereo not shown) [Compound M001196] | > 1 | > 1 |  | 
CC(=O)N1Cc2cc(C3CCNC(=O)C3)cc(N3CCCc4cc(-c5cnn(C)c5)ccc43)c2C1 (stereo not shown) [Compound M001218] | > 1 | > 1 |  | 
CC(=O)N1Cc2cc(N3CCSCC3)cc(N3CCCc4cc(-c5cnn(C)c5)c(C(F)F)cc43)c2C1 [Compound M001004] | > 1 | > 1 |  | 
CNC(=O)N1CCc2cc(C3=CCC4(CC3)OCCO4)cc(N3CCCc4cc(-c5cnn(C)c5)c(C(F)F)cc43)c2C1 [Compound M001090] | > 1 | > 1 |  | 
CC(=O)N1Cc2cc(C3CCC([S@@](C)(=N)=O)CC3)cc(N3CCCc4cc(-c5cnn(C)c5)c(C(F)F)cc43)c2C1 (stereo partly shown) [Compound M001328] | > 1 | > 1 |  | 
CNC(=O)N1CCc2cc(C3CCC(OC)CC3)cc(N3CCCc4cc(-c5cnn(C)c5)c(C(F)F)cc43)c2C1 (stereo not shown) [Compound M001199] |  |  | > 1 | > 1
COC(=O)N1CCCc2cccc(N3CCCc4cc(-c5cnn(C)c5)c(C(F)F)cc43)c2C1 [Compound M001210] | > 1 | > 1 |  | 
CC(=O)N1Cc2cc(N3CCOCC3)cc(N3CCCc4cc(-c5cnn(C)c5)c(C(F)F)cc43)c2C1 [Compound M001001] | > 1 | > 1 |  | 

Now from value to molecule:

IC50 (22Rv1 Cell; Homo sapiens, 22Rv1, 72 h) [µM] | IC50 (vCap Cell; Homo sapiens, VCaP, 72 h) [µM] | IC50 (22Rv1 Cell) [µM] | IC50 (vCap Cell) [µM] | SMILES
> 1 | > 1 |  |  | CNC(=O)N1Cc2cc(-c3ccccc3)cc(N3CCCc4cc(-c5cnn(C)c5)c(C(F)F)cc43)c2C1 [Compound M001120]
> 1 | > 1 |  |  | CNC(=O)N1CCc2cc([C@H]3CC[C@H](O)CC3)cc(N3CCCc4cc(-c5cnn(C)c5)c(C(F)F)cc43)c2C1 [Compound M001181]
> 1 | > 1 |  |  | CC(=O)N1Cc2cc(C3CCN(C)CC3)cc(N3CCCc4cc(-c5cnn(C)c5)c(C(F)F)cc43)c2C1 [Compound M001041]
> 1 | < 1 |  |  | CNC(=O)N1CCc2cc(-c3ccn(C)c(=O)c3)cc(N3CCCc4cc(-c5cnn(C)c5)c(C(F)F)cc43)c2C1 [Compound M001125]
< 1 | < 1 |  |  | CC(=O)N1Cc2cc([C@H]3CC[C@@H](S(C)(=O)=O)CC3)cc(N3CCCc4cc(-c5cnn(C)c5)c(C(F)F)cc43)c2C1 [Compound M001299]
> 1 | > 1 |  |  | CNC(=O)N1CCc2cc(C3CCN(C)C3)cc(N3CCCc4cc(-c5cnn(C)c5)c(C(F)F)cc43)c2C1 (stereo not shown) [Compound M001051]
> 1 | > 1 |  |  | CNC(=O)N1Cc2cc(C3CCC(OC)CC3)cc(N3CCCc4cc(-c5cnn(C)c5)c(C(F)F)cc43)c2C1 (stereo not shown) [Compound M001200]
> 1 | < 1 |  |  | CC(=O)N1Cc2cc(C3CCC(=O)CC3)cc(N3CCCc4cc(-c5cnn(C)c5)c(C(F)F)cc43)c2C1 [Compound M001102]
> 1 | > 1 |  |  | CNC(=O)N1CCc2cc(N3CCS(=O)(=O)CC3)cc(N3CCCc4cc(-c5cnn(C)c5)c(C(F)F)cc43)c2C1 [Compound M001021]
< 1 | < 1 |  |  | CNC(=O)N1CCc2cc(C3CCN(C(C)=O)CC3)cc(N3CCCc4cc(-c5cnn(C)c5)c(C(F)F)cc43)c2C1 [Compound M001068]
> 1 | > 1 |  |  | CN1CCN(c2cc3c(c(N4CCCc5cc(-c6cnn(C)c6)c(C(F)F)cc54)c2)CN(C)C(=O)C3)CC1 [Compound M001024]
> 1 | > 1 |  |  | CNC(=O)N1CCc2cc(C3CCN(C)CC3)cc(N3CCCc4cc(-c5cnn(C)c5)c(C(F)F)cc43)c2C1 [Compound M001018]
> 1 | > 1 |  |  | CC(=O)N1Cc2cc(C3CCN(C[C@H](C)O)CC3)cc(N3CCCc4cc(-c5cnn(C)c5)c(C(F)F)cc43)c2C1 [Compound M001030]
> 1 | > 1 |  |  | CC(=O)N1Cc2cc(C3CCN(C(=O)C4CNC4)CC3)cc(N3CCCc4cc(-c5cnn(C)c5)c(C(F)F)cc43)c2C1 [Compound M001079]
> 1 | > 1 |  |  | CC(=O)N1Cc2cc(C3CCC([S@](C)(=N)=O)CC3)cc(N3CCCc4cc(-c5cnn(C)c5)c(C(F)F)cc43)c2C1 (stereo in doubt) [Compound M001330]
> 1 | < 1 |  |  | CC(=O)N1Cc2cc(C3CCN(C(C)=O)C3)cc(N3CCCc4cc(-c5cnn(C)c5)c(C(F)F)cc43)c2C1 (stereo not shown) [Compound M001053]
> 1 | > 1 |  |  | CON1CCC(c2cc3c(c(N4CCCc5cc(-c6cnn(C)c6)c(C(F)F)cc54)c2)CN(C(=O)OC(C)(C)C)CC3)CC1 [Compound M001274, tert-butyl 8-[7-(difluoromethyl)-6-(1-methylpyrazol-4-yl)-3,4-dihydro-2H-quinolin-1-yl]-6-(1-methoxypiperidin-4-yl)-3,4-dihydro-1H-isoquinoline-2-carboxylate]
< 1 | < 1 |  |  | CC(=O)N1Cc2cc(C3CCN(CC(F)(F)F)C(=O)C3)cc(N3CCCc4cc(-c5cnn(C)c5)c(C(F)F)cc43)c2C1 (stereo not shown) [Compound M001252]
< 1 | < 1 |  |  | CNC(=O)N1CCc2cc(C3CCN(CC(F)(F)F)C(=O)C3)cc(N3CCCc4cc(-c5cnn(C)c5)c(C(F)F)cc43)c2C1 (stereo not shown) [Compound M001253]
< 1 | < 1 |  |  | CC(=O)N1Cc2cc(C3CCN(CC#N)CC3)cc(N3CCCc4cc(-c5cnn(C)c5)c(C(F)F)cc43)c2C1 [Compound M001074]
< 1 | < 1 |  |  | CC(=O)N1Cc2cc(C3CCNC(=O)C3)cc(N3CCCc4cc(-c5cnn(C)c5)c(C5CC5)cc43)c2C1 (stereo not shown) [Compound M001219, 4-{2-acetyl-7-[7-cyclopropyl-6-(1-methylpyrazol-4-yl)-3,4-dihydro-2H-quinolin-1-yl]-1,3-dihydroisoindol-5-yl}piperidin-2-one]
< 1 | < 1 |  |  | CNC(=O)N1CCc2cc(-c3ccc(=O)n(C)c3)cc(Nc3cc(C(F)F)c(-c4cnn(C)c4)cc3F)c2C1 [Compound M001239, 8-((5-(difluoromethyl)-2-fluoro-4-(1-methyl-1H-pyrazol-4-yl)phenyl)amino)-N-methyl-6-(1-methyl-6-oxo-1,6-dihydropyridin-3-yl)-3,4-dihydroisoquinoline-2(1H)-carboxamide]
